Results published in patent publication US9371335B2, “Spirothienopyran-piperidine derivatives as ORL-1 receptor antagonists for their use in the treatment of alcohol dependence and abuse” (Eli Lilly and Company, priority 2011, dated 2016).

Tested on: extracellular dopamine (DA) in the rat nucleus accumbens
Assay: Ethanol-stimulated increases in extracellular dopamine levels in the nucleus accumbens (microdialysis)
Type: in vivo, Sprague-Dawley rats
Source text: Ethanol-Stimulated Increases in Extracellular Dopamine Levels in the Nucleus Accumbens:
Male Sprague-Dawley rats with a body weight of 260-300 g from Taconic Farms (Germantown, N.Y.) are implanted with a guide cannula (Bioanalytical Systems Inc, West Lafayette, Ind.) in the nucleus accumbens by the vendor 5-7 days before the experiment. Stereotaxic coordinates for the nucleus accumbens cannula are: A (anterior to bregma), 1.7 mm; L (lateral from the midsagittal suture, right side), 1.0 mm; and V (ventral from the dura surface), −6.0 mm (Paxinos and Watson, 1986). A concentric type probe (BR-2) from Bioanalytical Systems Inc. (West Lafayette, Ind.) is flushed with water and carefully inserted through the cannula about 16 hours before the experiment so that 2 mm of the membrane tip extends below the end of the guide cannula. The rat is then placed in a plastic test bowl to acclimate overnight. Based on methods modified from Melendez et al. (Melendez R I, Rodd-Henricks Z A, McBride W J and Murphy J M (2003), Alcohol stimulates the release of dopamine in the ventral pallidum but not in the globus pallidus: a dual-probe microdialysis study. Neuropsychopharmacology 28:939-946), the rat is connected to a fraction collection system for freely moving animals on the morning of the experiment (Raturn, BioAnalytical Systems Inc, West Lafayette, Ind.). The input tube of the dialysis probe is connected to a syringe pump (BeeHive and BabyBee, Bioanalytical Systems Inc, West Lafayette, Ind.) which delivers an artificial cerebrospinal fluid (150 mM NaCl, 3 mM KCl, 1.7 mM CaCl2 and 0.9 mM MgCl2 ([…])) to the probe at a final collection rate of 1.5 μL/min. The output tubes from the rats are attached to a refrigerated fraction collector (Bioanalytical Systems Inc, West Lafayette, Ind.). After a period of about an hour at an initial perfusion rate of 5.0 μL/min, the flow rate is decreased to 2.0 μL/min for equilibration of the probe and establishment of stable baseline levels for 1 hour, then collection of 20 minute fractions is started. Four baseline samples are collected before injection of any drugs.
Test compound is administered orally at 30 mg/kg (2 ml/kg dose volume, dissolved in a vehicle consisting of 20% Captisol® in 25 mM phosphate buffer at pH=3). The compound is administered either alone (10 min into the 4th sample; 0 min time point) or in combination with ethanol (10 min into the 1st sample; −60 min time point). Ethanol is administered intraperitoneally (ip) at a dose of 1.1 g/kg in a 15% (v/v) solution in 0.9% saline in a volume of 2.9 ml per rat. Ethanol is administered 10 min into the 4th sample (0 min time point). Dialysate samples are transferred to an Alcott 718 Autosampler/Injector with the sample cooling tray set to 5° C. (Alcott Inc., Norcross, Ga.). […]

[1] = compound 30 mg/kg oral + EtOH 1.1 g/kg ip

Structure (SMILES): Cc1nn(-c2ncccc2CO)cc1CN1CCC2(CC1)OCC(F)(F)c1cc(Cl)sc12 [Compound 1, [2-[4-[(2-chloro-4,4-difluoro-spiro[5H-thieno[2,3-c]pyran-7,4′-piperidine]-1′-yl)methyl]-3-methyl-pyrazol-1-yl]-3-pyridyl]methanol]
- Mean DA level (% of baseline) during 120 min period post-EtOH injection [1]: 102.78 % of baseline
- Reduction of DA response relative to Vehicle [1]: 88.16%
- Mean DA level (% of baseline) during 120 min period post-EtOH injection (compound 30 mg/kg oral + Vehicle (no ethanol)): 98.53 % of baseline
- ethanol-stimulated increase in extracellular DA concentration in the nucleus accumbens (result in words): prevent the increase in extracellular DA concentrations in the nucleus accumbens
